We go through one compound from ChEMBL document CHEMBL6087454, “Identification of Novel Organo-Se BTSA-Based Derivatives as Potent, Reversible, and Selective PPARγ Covalent Modulators for Antidiabetic Drug Discovery” (J Med Chem, 2025).

Active and inactive are the calls of the source. No cut-off for these calls is given here.

Data set [1] concerns Mus musculus. Nature of the data set: In vivo inhibition of Erk/Cdk5-mediated PPAR-gamma phosphorylation at Ser273 residue in male db/db mouse model assessed as decrease in phosphorylated-ERK expression in liver at 2.5 to 10 mg/kg/day, ip administered for 4 weeks by Western blotting analysis. It is filed as functional, organism-based. The settings on record: dose 2.5-10 mg/kg/day.

The test system of data set [2] is Mus musculus. As to the kind of experiment: Antidiabetic activity in male db/db mouse model assessed as downregulation of PTP1B gene expression in white adipose tissue at 2.5 to 10 mg/kg/day, ip administered for 4 weeks by RT-qPCR analysis. It is filed as functional, organism-based. The settings on record: dose 2.5-10 mg/kg/day. On the technique in general: In qPCR the cycle at which signal appears reflects the starting amount.

For data set [3], the system named is Mus musculus. As to the kind of experiment: Antidiabetic activity in male db/db mouse model assessed as downregulation of aP2 gene expression in white adipose tissue at 2.5 to 10 mg/kg/day, ip administered for 4 weeks by RT-qPCR analysis. The data set is classed as functional, organism-based. The settings on record: dose 2.5-10 mg/kg/day.
In data set [4] the test system is Mus musculus. As to the kind of experiment: Antidiabetic activity in male db/db mouse model assessed as reduction in fasting blood glucose level administered intraperitoneally for 4 weeks. The data set is classed as functional, organism-based. The settings on record: dose 2.5-10 mg/kg/day, route ip.
In data set [5] the test system is Mus musculus. As to the kind of experiment: In vivo inhibition of Erk/Cdk5-mediated PPAR-gamma phosphorylation at Ser273 residue in male db/db mouse model assessed as decrease in phosphorylated-MEK expression in liver at 2.5 to 10 mg/kg/day, ip administered for 4 weeks by Western blotting analysis. The data set is classed as functional, organism-based. The settings on record: dose 2.5-10 mg/kg/day. On the technique in general: A western blot detects proteins with antibodies after separation by electrophoresis.

Data set [6] relates to Mus musculus. As to the kind of experiment: Antidiabetic activity in male db/db mouse model assessed as increase in ANGPTL4 protein abundance in liver at 2.5 to 10 mg/kg/day, ip administered for 4 weeks by Western blotting analysis. It is filed as functional, organism-based. The settings on record: dose 2.5-10 mg/kg/day.
Data set [7] deals with 3T3-L1. As to the kind of experiment: Inhibition of adipogenesis in mouse 3T3-L1 cells assessed as downregulation of C/EBPalpha gene expression at 1 uM measured after 48 hrs by RT-qPCR analysis. It is filed as functional, cell-based.
For data set [8], the system named is Mus musculus. Nature of the data set: Antidiabetic activity in male db/db mouse model assessed as decrease in serum insulin level at 2.5 to 10 mg/kg/day, ip preadministered for 4 weeks followed by glucose administration after 4 to 6 hrs of fasting and measured after 120 mins by intraperitoneal insulin tolerance test. The settings on record: dose 2.5-10 mg/kg/day. The data set is classed as functional, organism-based.

A short description of data set [9]: Toxicity in male db/db mouse model assessed as effect on heart weight at 2.5 to 10 mg/kg/day, ip administered for 4 weeks. It is filed as organism-based. The settings on record: in vivo, 672 h, dose 2.5-10 mg/kg/day.
Data set [10] in a line: Toxicity in male db/db mouse model assessed as decrease in liver weight at 10 mg/kg, ip administered for 4 weeks. The settings on record: in vivo, 672 h. The data set is classed as organism-based.
Data set [11] concerns Mus musculus. As to the kind of experiment: In vivo inhibition of Erk/Cdk5-mediated PPAR-gamma phosphorylation at Ser273 residue in male db/db mouse model assessed as decrease in phosphorylated-ERK expression in white adipose tissue at 2.5 to 10 mg/kg/day, ip administered for 4 weeks by Western blotting analysis. The data set is classed as functional, organism-based. The settings on record: dose 2.5-10 mg/kg/day.

The nature of data set [12]: Toxicity in male db/db mouse model assessed as effect on spleen morphology at 2.5 to 10 mg/kg/day, ip administered for 4 weeks. The settings on record: in vivo, 672 h, dose 2.5-10 mg/kg/day. It is filed as organism-based.
In data set [13] the test system is Mus musculus. Nature of the data set: Antidiabetic activity in male db/db mouse model assessed as downregulation of CD36 gene expression in liver at 2.5 to 10 mg/kg/day, ip administered for 4 weeks by RT-qPCR analysis. The settings on record: dose 2.5-10 mg/kg/day. The data set is classed as functional, organism-based.
Data set [14] has as its system Mus musculus. As to the kind of experiment: Antidiabetic activity in male db/db mouse model assessed as upregulation of Glut4 gene expression in white adipose tissue at 2.5 to 10 mg/kg/day, ip administered for 4 weeks by RT-qPCR analysis. It is filed as functional, organism-based. The settings on record: dose 2.5-10 mg/kg/day.
A short description of data set [15]: Toxicity in male db/db mouse model assessed as increase in lipid accumulation in liver at 2.5 to 10 mg/kg/day, ip administered for 4 weeks by Oil red O staining based analysis. The settings on record: in vivo, 672 h, dose 2.5-10 mg/kg/day. The data set is classed as organism-based.
The target of data set [16] is T1, Peroxisome proliferator-activated receptor gamma (Homo sapiens, UniProt P37231).
T1 sequence (P37231 whole entry): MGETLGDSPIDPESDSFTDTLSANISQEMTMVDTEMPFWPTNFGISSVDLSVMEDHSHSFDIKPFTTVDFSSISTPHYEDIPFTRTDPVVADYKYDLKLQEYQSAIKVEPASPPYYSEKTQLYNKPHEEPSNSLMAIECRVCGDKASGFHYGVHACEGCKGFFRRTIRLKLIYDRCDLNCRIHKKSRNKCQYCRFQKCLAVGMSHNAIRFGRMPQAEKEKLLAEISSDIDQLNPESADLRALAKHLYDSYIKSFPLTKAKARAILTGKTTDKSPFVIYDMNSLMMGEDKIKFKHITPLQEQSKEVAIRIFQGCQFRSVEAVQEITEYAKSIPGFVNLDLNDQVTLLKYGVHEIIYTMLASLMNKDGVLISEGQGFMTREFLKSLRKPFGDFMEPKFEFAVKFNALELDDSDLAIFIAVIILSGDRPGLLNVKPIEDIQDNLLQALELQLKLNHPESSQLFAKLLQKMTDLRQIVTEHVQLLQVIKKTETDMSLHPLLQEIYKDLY
Nature of the data set: Binding affinity to recombinant GST-tagged human PPAR-gamma ligand binding domain (E235 to Y505 residues) extracted from Escherichia coli BL21 (DE3) cells assessed as inhibition constant in presence of fluormone pan-PPAR green tracer by TR-FRET assay. Background: In TR-FRET formats the signal depends on donor and acceptor labels being close together.

Data set [17] has as its system Mus musculus. As to the kind of experiment: Antidiabetic activity in male db/db mouse model assessed as increase in ADIPOQ protein abundance in white adipose tissue at 2.5 to 10 mg/kg/day, ip administered for 4 weeks by Western blotting analysis. The data set is classed as functional, organism-based. The settings on record: dose 2.5-10 mg/kg/day.
For data set [18], the target named is T2, Peroxisome proliferator-activated receptor gamma (Homo sapiens) (UniProt P37231).
T2 sequence (whole entry): T1 sequence (P37231 whole entry)
As to the kind of experiment: Reversible covalent binding affinity to full-length human PPAR-gamma transfected in […] cells at 5 to 60 nM preincubated for 6 hrs followed by rosiglitazone addition and measured after 24 hrs by Firefly and Renilla-Glo luciferase reporter assay. It is filed as cell-based. The settings on record: filed as partial agonist, dose 5-60 nM, time 30.0 hrs.

Data set [19] concerns Mus musculus. Nature of the data set: Antidiabetic activity in male db/db mouse model assessed as reduction in random blood glucose level administered intraperitoneally for 4 weeks. The data set is classed as functional, organism-based. The settings on record: dose 2.5-10 mg/kg/day, route ip.
The target in data set [20] is T3, Peroxisome proliferator-activated receptor delta (Homo sapiens) (UniProt Q03181).
T3 sequence (whole entry): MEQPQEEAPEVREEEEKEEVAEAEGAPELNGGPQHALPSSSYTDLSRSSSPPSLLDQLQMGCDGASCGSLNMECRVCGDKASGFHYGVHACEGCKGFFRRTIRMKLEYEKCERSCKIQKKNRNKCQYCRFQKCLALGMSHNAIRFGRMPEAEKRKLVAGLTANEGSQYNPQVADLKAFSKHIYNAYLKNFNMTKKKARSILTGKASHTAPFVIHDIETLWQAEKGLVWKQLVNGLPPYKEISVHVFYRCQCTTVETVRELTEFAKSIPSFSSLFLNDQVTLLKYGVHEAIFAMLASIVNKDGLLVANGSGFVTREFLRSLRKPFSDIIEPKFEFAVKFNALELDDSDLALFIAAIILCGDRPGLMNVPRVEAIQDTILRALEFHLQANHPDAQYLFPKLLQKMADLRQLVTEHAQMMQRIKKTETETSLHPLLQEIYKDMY
Nature of the data set: Binding affinity to PPAR-delta (unknown origin) at 0.5 uM in presence of fluormone pan-PPAR green tracer by TR-FRET assay.

In data set [21] the test system is 3T3-L1. As to the kind of experiment: Insulin sensitizing activity in mouse 3T3-L1 cells assessed as downregulation of SOCS3 gene expression at 1 uM measured after 48 hrs by RT-qPCR analysis. The data set is classed as functional, cell-based.

One may read the Ki as the dissociation constant of the complex between target and ligand, obtained from inhibition or displacement. Regarding `Cc1ccc(S(=O)(=O)Oc2ccc(S3(=O)=N[Se]c4cc(OS(=O)(=O)c5ccc(C)cc5)ccc43)cc2)cc1` (stereo unspecified), the inhibition entry in the data set with Mus musculus [1], with Mus musculus [5], in the data set with 3T3-L1 [7] and in the data set with Mus musculus [11] was “Active” throughout. Besides, the result in the data set on Mus musculus [2], with Mus musculus [3], in the data set on Mus musculus [6], with Mus musculus [8], in the data set with Mus musculus [13] and in the data set with Mus musculus [14] was Active. The result (in the data set with Mus musculus [17]; in [18]; in the data set on 3T3-L1 [21]) was Active. Besides, the Activity result in the data set on Mus musculus [4] was “Dose-dependent-effect”; in [9], “Non-toxic”; in [10], “Toxic”; in [12], “Non-toxic”; in data set [15], “Non-toxic”; in the data set on Mus musculus [19], “Dose-dependent-effect”. Moreover, the inhibition constant (Ki) in [16] worked out at 0.124 µM. For the same compound, the outcome in [20] was inactive.
